{"source": "patent US20070259844A1", "about": "“Antiviral Compositions And Methods Of Using The Same” (VGX PHARMACEUTICALS, priority 2003, published 2007)", "key": {"[1]": {"system": "HCV RNA-replicating cell line AVA5", "assay": "Primary in vitro anti-HCV screen, intracellular HCV RNA levels in AVA5 cells", "assay_type": "cell-based", "method": "(§1) The antiviral activity of test compounds are assayed in the stably HCV RNA-replicating cell line, AVA5, derived by transfection of the human hepatoblastoma cell line, Huh7 (Blight, et al., 2000, Sci. 290:1972). Compounds are added to dividing cultures once daily for three days (media is changed with each addition of compound). Cultures generally start the assay at 50% confluence and reach confluence during the last day of treatment. Intracellular HCV RNA levels and cytotoxicity are assessed 24 hours after the last dose of compound.\n(§2) Assays are conducted using a single dose of test compound. Replicate cultures for HCV RNA levels (on 48-well plates) and triplicate cultures for cytoxicity (on 96-well plates) are used.\nIntracellular HCV RNA levels are measured using standard blot hybridization (Korba & Gerin, 1992, Antivir. Res. 19:55) using triplicate cultures. HCV RNA levels in the treated cultures are expressed as a percentage of the mean levels of RNA detected in untreated cultures. Levels of β-actin RNA are used to normalize HCV RNA levels in each sample."}, "[2]": {"assay": "Cytotoxicity in the anti-HCV screen (AVA5 cultures)", "assay_type": "cell-based, human", "details": "human, AVA5 cells (stably HCV RNA-replicating, derived from Huh7); toxicity control, AVA5 cells, once daily for three days; read-out: approximate CC90", "method": "as §1, §2"}, "[3]": {"system": "AVA5 cells (derived from human hepatoblastoma cell line Huh7)", "assay": "Cytotoxicity in the anti-HCV screen (AVA5 cultures)", "assay_type": "cell-based", "details": "10 IU/ml", "method": "as §1, §2"}, "[4]": {"biological_target": "T1, human glucocorticoid receptor (Homo sapiens, UniProt P04150)", "T1 sequence (P04150 1-777)": "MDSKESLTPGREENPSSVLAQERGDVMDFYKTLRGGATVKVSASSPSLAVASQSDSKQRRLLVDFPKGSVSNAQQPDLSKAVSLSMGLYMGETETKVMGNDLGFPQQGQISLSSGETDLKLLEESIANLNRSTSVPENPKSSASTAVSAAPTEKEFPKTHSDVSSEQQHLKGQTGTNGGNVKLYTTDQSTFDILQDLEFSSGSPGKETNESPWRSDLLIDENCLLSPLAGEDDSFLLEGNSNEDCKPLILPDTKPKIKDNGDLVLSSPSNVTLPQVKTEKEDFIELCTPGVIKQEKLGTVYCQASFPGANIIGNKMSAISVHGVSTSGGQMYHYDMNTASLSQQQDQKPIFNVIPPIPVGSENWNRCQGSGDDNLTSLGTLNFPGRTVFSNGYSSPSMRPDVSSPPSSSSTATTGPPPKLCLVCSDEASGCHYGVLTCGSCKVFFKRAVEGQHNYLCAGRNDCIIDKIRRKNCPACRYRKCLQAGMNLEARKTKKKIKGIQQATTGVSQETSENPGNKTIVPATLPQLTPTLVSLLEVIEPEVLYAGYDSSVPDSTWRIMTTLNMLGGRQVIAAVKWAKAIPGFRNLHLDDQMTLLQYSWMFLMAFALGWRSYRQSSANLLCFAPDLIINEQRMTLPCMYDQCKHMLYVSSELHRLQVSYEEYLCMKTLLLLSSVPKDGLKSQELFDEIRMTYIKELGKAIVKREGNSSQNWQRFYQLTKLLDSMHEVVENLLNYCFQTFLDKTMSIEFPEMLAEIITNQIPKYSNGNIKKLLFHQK", "details": "cited from earlier work"}}, "data": [{"compound": "NC(=O)c1ncn([C@@H]2O[C@H](CO)[C@@H](O)[C@H]2O)n1", "note": "[ribavirin, reference compound]", "values": [{"measurement": "antiviral activity at the CC90", "setting": "[1]; 100 μM", "value": "no antiviral activity"}, {"measurement": "CC90 at 3 days", "setting": "[2]", "value": "~100", "unit": "µM"}]}, {"compound": "α-interferon", "values": [{"measurement": "approximate EC90", "setting": "[1]; positive antiviral control, AVA5 cells, once daily for three days", "value": "~10", "unit": "IU/ml"}, {"measurement": "cytotoxicity at the EC90", "setting": "[3]", "value": "no cytotoxicity"}]}, {"compound": "C[C@]12CCC(=O)C=C1CC[C@@H]1[C@@H]2[C@@H](O)C[C@@]2(C)[C@H]1CC[C@]2(O)C(=O)CO", "note": "[cortisol, reference compound]", "values": [{"measurement": "relative binding affinity to the human glucocorticoid receptor", "setting": "[4]", "value": 23, "unit": "%"}]}]}
